The record followed here is the NIST ThermoML archive (doi:10.1021/je401066j).

± gives the expanded uncertainty stated by the source.

The conditions of this data set: 101 kPa, Liquid mixture 1, Drop volume.

Take `CCCCCC` [hexane] + O: the interfacial tension by setting is: (288.2 K) 51.4 ± 0.4 mN/m; (293.2 K) 51 ± 0.4 mN/m; (298.2 K) 50.7 ± 0.4 mN/m; (303.2 K) 50.4 ± 0.4 mN/m; (308.2 K) 50.2 ± 0.4 mN/m.
